Like-named read-outs stand apart in the source and are kept apart here.
Experiments:
SARS-CoV-2 = assay: Anti-viral in vitro PRNT assay in Vero E6 cells; format: cell-based; conditions: for EC50: read-out: anti-SARS-CoV2 (PRNT) in Vero E6 EC50
[1] = format: in vitro ADME, Human; conditions: extraction ratio, compound at 1 uM, human liver microsomes 0.5 mg/mL
Description: (§1) Metabolic stability of novel protease inhibitors was determined via liver microsomal stability assay. Human, mouse, SD rat, beagle dog or monkey liver microsomes were incubated with the test compound for 5 to 60 minutes at 37° C., and then the remaining parent compound was quantified by LC-MS/MS. Percentage of the test compound remaining, half-life (t1/2), in vitro intrinsic clearance (CLint, in vitro), in vivo intrinsic clearance (CLint, in vivo), hepatic clearance (CLh) and extraction ratio (ER) were calculated.
(§2) Procedure: The assay was done as described in Baranczewski, P. et al. (2006) Pharmacological Reports 58:453-472; Pearson, P. and Wienkers, L. (2008) Handbook of Drug Metabolism, 2nd Edition. CRC Pres, P.478; and Venkatesh, P. et al. (2007) Biol. Pharm. Bull. 30:1021-2024. 0.625 mg/mL liver microsomes solution was prepared by mixing 2325 μL 100 mM of K-phosphate buffer (pH 7.4) containing 2.5 mM of MgCl2, 1.25 mM of EDTA, and 75 μL microsomes (20 mg/mL) in a vial for each species.
(§3) Positive control compound: (±) Verapamil hydrochloride (Cat No.: V4629; Lot No.: MKBV4993V; Source: Sigma)
40 μL aliquots of the liver microsome/test compound mixture were dispensed into 96-well plate in triplicate and pre-warmed the mixture for 5 minutes at 37° C. Then, 10 μL of 5 mM NADPH solution was added to each well to initiate the reaction, and gently mixed. The samples were incubated at 37° C. with gentle shaking.
(§4) For 0-min samples, 200 μL of ACN containing internal standard was added to 40 μL of liver microsome/test compound mixture, followed by addition of 5 mM NADPH, and mixed gently.
(§5) For negative control: 40 μL of liver microsome/test compound mixture was incubated at 37° C. with gentle shaking for 60 minutes, followed by addition of 200 μL ACN containing 1% FA and internal standard and 10 μL of 5 mM NADPH, mixed gently.
(§6) All samples were centrifuged at 4° C. for 20 minutes at 4,000 rpm. Then, 100 μL of the supernatant from each sample was transferred to a new 96-well plate and 100 μL of ultrapure water containing 1% FA was added to each well, and mixed gently. Samples were analyzed by LC-MS/MS.
(§7) Data Analysis: Peak area ratio (Peak Area of test compound/Peak Area of internal standard) was used to represent the concentration of compound in each sample. The remaining percentage (% Remaining) at appointed time points was calculated versus the concentration of compound at 0 min. The Ln value of the remaining percentage was linearly fitted against the incubation time.
(§8) The half-life and clearance were calculated using the following equations:
(§9) Determined percent of the remaining test compound: % remaining=[area at tx/average areas at t0]×100 (1) % metabolized=[100−% remaining] (2)
(§10) Calculated the half-life (t1/2) using the slope (k) of the log-linear regression from the concentration of remaining parent compound versus time (min) relationship: t1/2 (min)=−ln 2/k. (3)
(§11) Clint, in vitro (mL/min/mg) Clint,in vitro=k/c,(c:Liver microsome concentration in the incubation system) (4)
(§12) Hepatic Clearance (CLh) CLh=Clint,in vivo*Hepatic Blood Flow (mL/min/kg)/(Hepatic Blood Flow (mL/min/kg)+Clint,in vivo) (6)
(§13) Extraction ratio (ER): ER=CLint,in vivo/(Qh+CLint,in vivo)*100,Qh:liver blood flow (7)

[2] = format: in vitro ADME; conditions: extraction ratio, compound at 1 uM; for Liver Microsomal Stability (ER) SD rat: SD rat liver microsomes 0.5 mg/mL; for Liver Microsomal Stability (ER) Beagle dog: beagle dog liver microsomes 0.5 mg/mL; for Liver Microsomal Stability (ER) Monkey: monkey liver microsomes 0.5 mg/mL; for Liver Microsomal Stability (ER) Mouse: mouse liver microsomes 0.5 mg/mL
Description: as §1, §2, §3
40 μL aliquots of the liver microsome/test compound mixture were dispensed into 96-well plate in triplicate and pre-warmed the mixture for 5 minutes at 37° C. Then, 10 μL of 5 mM NADPH solution was added to each well to initiate the reaction, and gently mixed. The samples were incubated at 37° C. with gentle shaking. (Final concentrations: compound=1 μM; liver microsomes protein=0.5 mg/mL; MgCl2=2 mM; EDTA=1 mM; ACN=0.1%; DMSO=0.05%).
as §4, §5, §6, §7, §8, §9, §10, §11, §12, §13

[3] = Vero E6 cells, 1000 pfu, 3 days, plaque reduction

C[C@@H](C=O)NC(=O)[C@H](CC1CCCCC1)N(C(=O)OCc1ccccc1)C1CC1 [Compound E-1-b]
anti-SARS-CoV2 (PRNT) in Vero E6 EC50 (μM) (SARS-CoV-2): inactive

CC(C)[C@@H](C#N)NC(=O)[C@@H]1[C@@H]2[C@H](CN1C(=O)[C@@H](NC(=O)C(F)(F)F)C1CC1)C2(C)C [Compound F-4-a]
anti-SARS-CoV2 (PRNT) in Vero E6 EC50 (μM) (SARS-CoV-2; [3]): inactive | Liver Microsomal Stability (ER) Human [1]: 0.07 | Liver Microsomal Stability (ER) SD rat [2]: 0.20 | Liver Microsomal Stability (ER) Beagle dog [2]: 0.08 | Liver Microsomal Stability (ER) Monkey [2]: 0.07 | Liver Microsomal Stability (ER) Mouse [2]: 0.03

CC(C)[C@H](NC(=O)[C@@H]1[C@@H]2[C@H](CN1C(=O)[C@@H](NC(=O)C(F)(F)F)C(C)(C)C)C2(C)C)C(=O)CCl [Compound F-2-b]
EC50 (SARS-CoV-2; [3]): 420 nM | Liver Microsomal Stability (ER) Human [1]: 0.81 | Liver Microsomal Stability (ER) SD rat [2]: 0.65 | Liver Microsomal Stability (ER) Beagle dog [2]: 0.55 | Liver Microsomal Stability (ER) Monkey [2]: 0.57 | Liver Microsomal Stability (ER) Mouse [2]: 0.50

COC(=O)[C@H](C[C@@H]1CCNC1=O)NC(=O)[C@H](CC(C)C)NC(=O)c1cc2ccccc2[nH]1 [Compound A-1-a, methyl (S)-2-((S)-2-(1H-indole-2-carboxamido)-4-methylpentanamido)-3-((S)-2-oxopyrrolidin-3-yl)propanoate]
anti-SARS-CoV2 (PRNT) in Vero E6 EC50 (μM) (SARS-CoV-2; [3]): inactive

C[C@@H](C#N)NC(=O)[C@@H]1[C@@H]2[C@H](CN1C(=O)[C@@H](NC(=O)C(F)(F)F)C(C)(C)C)C2(C)C [Compound F-1-c]
anti-SARS-CoV2 (PRNT) in Vero E6 EC50 (μM) (SARS-CoV-2): inactive

O=C[C@H](C[C@@H]1CCNC1=O)NC(=O)[C@H](CC1CCCCC1)NC(=O)c1cc2ccccc2[nH]1 [Compound A-2-c]
EC50 (SARS-CoV-2): 640 nM

C[C@@H](C#N)NC(=O)[C@@H]1[C@@H]2[C@H](CN1C(=O)[C@@H](NC(=O)C(F)(F)F)C1CC1)C2(C)C [Compound F-3-a]
anti-SARS-CoV2 (PRNT) in Vero E6 EC50 (μM) (SARS-CoV-2): inactive

C=CC(=O)N[C@@H](NC(=O)[C@@H]1[C@@H]2[C@H](CN1C(=O)[C@@H](NC(=O)C(F)(F)F)C1CC1)C2(C)C)C(C)C [Compound F-4-b]
anti-SARS-CoV2 (PRNT) in Vero E6 EC50 (μM) (SARS-CoV-2): inactive

CC(C)[C@@H](C#N)NC(=O)[C@@H]1[C@@H]2[C@H](CN1C(=O)[C@@H](NC(=O)C(F)(F)F)C(C)(C)C)C2(C)C [Compound F-2-c]
anti-SARS-CoV2 (PRNT) in Vero E6 EC50 (μM) (SARS-CoV-2): inactive

C=CC(=O)N[C@H](C)NC(=O)[C@@H]1[C@@H]2[C@H](CN1C(=O)[C@@H](NC(=O)C(F)(F)F)C(C)(C)C)C2(C)C [Compound F-1-d]
anti-SARS-CoV2 (PRNT) in Vero E6 EC50 (μM) (SARS-CoV-2): inactive

C=CC(=O)N[C@@H](NC(=O)[C@@H]1[C@@H]2[C@H](CN1C(=O)[C@@H](NC(=O)C(F)(F)F)C(C)(C)C)C2(C)C)C(C)C [Compound F-2-d]
anti-SARS-CoV2 (PRNT) in Vero E6 EC50 (μM) (SARS-CoV-2): inactive

CC(C)C[C@H](NC(=O)c1cc2ccccc2[nH]1)C(=O)N[C@@H](C[C@@H]1CCNC1=O)C(=O)O [Compound A-1-e, (2S)-2-[(2S)-2-[(1H-indol-2-yl)formamido]-4-methylpentanamido]-3-[(3S)-2-oxopyrrolidin-3-yl]propanoic acid]
Liver Microsomal Stability (ER) Human [1]: 0.00 | Liver Microsomal Stability (ER) SD rat [2]: −0.02 | Liver Microsomal Stability (ER) Beagle dog [2]: 0.02 | Liver Microsomal Stability (ER) Mouse [2]: 0.09

CC(C)C[C@H](NC(=O)OCc1ccccc1)C(=O)N[C@@H](C[C@@H]1CCNC1=O)C(=O)CCl [Compound B-1-c]
EC50 (SARS-CoV-2): 2290 nM

COC(=O)[C@H](C[C@@H]1CCNC1=O)NC(=O)[C@@H]1[C@@H]2[C@H](CN1C(=O)[C@@H](NC(=O)C(F)(F)F)C(C)(C)C)C2(C)C [Compound D-1-a, methyl (2S)-2-{[(1R,2S,5S)-3-[(2S)-3,3-dimethyl-2-(trifluoroacetamido)-butanoyl]-1,5-dihydrogenio-6,6-dimethyl-3-azabicyclo[3.1.0]hexan-2-yl]formamido}-3-[(3S)-2-oxopyrrolidin-3-yl]propanoate]
anti-SARS-CoV2 (PRNT) in Vero E6 EC50 (μM) (SARS-CoV-2): inactive

COC(=O)[C@H](C[C@@H]1CCNC1=O)NC(=O)[C@H](CC(C)C)NC(=O)OCc1ccccc1 [Compound B-1-a, methyl (S)-2-((S)-2-(((benzyloxy)carbonyl)-amino)-4-methylpentanamido)-3-((S)-2-oxopyrrolidin-3-yl)propanoate]
anti-SARS-CoV2 (PRNT) in Vero E6 EC50 (μM) (SARS-CoV-2; [3]): inactive

C=CC(=O)[C@H](C[C@@H]1CCNC1=O)NC(=O)[C@H](CC(C)C)NC(=O)OCc1ccccc1 [Compound B-1-d]
anti-SARS-CoV2 (PRNT) in Vero E6 EC50 (μM) (SARS-CoV-2): inactive

COC(=O)[C@H](C[C@@H]1CCNC1=O)NC(=O)[C@H](CC1CCCCC1)NC(=O)OCc1ccccc1 [Compound B-2-a, methyl (S)-2-((S)-2-(((benzyloxy)carbonyl)amino)-3-cyclohexylpropan-amido)-3-((S)-2-oxopyrrolidin-3-yl)propanoate]
anti-SARS-CoV2 (PRNT) in Vero E6 EC50 (μM) (SARS-CoV-2; [3]): inactive

COC(=O)[C@@H](NC(=O)[C@@H]1[C@@H]2[C@H](CN1C(=O)[C@@H](NC(=O)C(F)(F)F)C(C)(C)C)C2(C)C)C(C)C [Compound F-2-a, methyl ((1R,2S,5S)-3-((S)-3,3-dimethyl-2-(2,2,2-trifluoroacetamido)-butanoyl)-6,6-dimethyl-3-azabicyclo[3.1.0]hexane-2-carbonyl)-L-valinate]
anti-SARS-CoV2 (PRNT) in Vero E6 EC50 (μM) (SARS-CoV-2): inactive

CC(C)C[C@H](NC(=O)OCc1ccccc1)C(=O)N[C@H](C=O)C[C@@H]1CCNC1=O [Compound B-1-b, benzyl ((S)-4-methyl-1-oxo-1-(((S)-1-oxo-3-((S)-2-oxopyrrolidin-3-yl)propan-2-yl)amino)pentan-2-yl)carbamate]
EC50 (SARS-CoV-2; Severe acute respiratory syndrome coronavirus 2, Vero C1008, 72 h): 1130 nM

CC(C)C[C@@H](NC(=O)c1cc2c(F)cccc2[nH]1)C(=O)N[C@H](C#N)C[C@@H]1CCNC1=O [Compound A-3-b]
Liver Microsomal Stability (ER) Human [1]: 0.18 | Liver Microsomal Stability (ER) SD rat [2]: 0.37 | Liver Microsomal Stability (ER) Beagle dog [2]: 0.06 | Liver Microsomal Stability (ER) Mouse [2]: 0.37

CC(C)(C)[C@H](NC(=O)C(F)(F)F)C(=O)N[C@@H](CC1CCCCC1)C(=O)N[C@H](C#N)C[C@@H]1CCNC1=O [Compound D-4-a]
Liver Microsomal Stability (ER) Human [1]: 0.46 | Liver Microsomal Stability (ER) SD rat [2]: 0.29 | Liver Microsomal Stability (ER) Beagle dog [2]: 0.21 | Liver Microsomal Stability (ER) Mouse [2]: 0.72

COC(=O)[C@H](C)NC(=O)[C@@H]1[C@@H]2[C@H](CN1C(=O)[C@@H](NC(=O)C(F)(F)F)C(C)(C)C)C2(C)C [Compound F-1-a, methyl ((1R,2S,5S)-3-((S)-3,3-dimethyl-2-(2,2,2-trifluoroacetamido)butanoyl)-6,6-dimethyl-3-azabicyclo[3.1.0]hexane-2-carbonyl)-L-alaninate]
anti-SARS-CoV2 (PRNT) in Vero E6 EC50 (μM) (SARS-CoV-2): inactive
